Test results: PubChem BioAssay (NCI)
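Following 48 hours of exposure in 96-well plates, responses at five concentrations were used to interpolate endpoints linearly. Definition used: TGI = concentration required for complete inhibition of growth.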

Experiments:
Test in all cases: DTP human tumour cell line panel, 48 h
786-0 renal = test system: 786-0 renal
A498 renal = test system: A498 renal
A549 NSCLC = test system: A549 NSCLC
ACHN renal = test system: ACHN renal
BT-549 breast = test system: BT-549 breast
CAKI-1 renal = test system: CAKI-1 renal
CCRF-CEM leukemia = test system: CCRF-CEM leukemia
COLO 205 colon = test system: COLO 205 colon
DU-145 prostate = test system: DU-145 prostate
EKVX NSCLC = test system: EKVX NSCLC
HCC-2998 colon = test system: HCC-2998 colon
HCT-116 colon = test system: HCT-116 colon
HCT-15 colon = test system: HCT-15 colon
HL-60(TB) leukemia = test system: HL-60(TB) leukemia
HOP-92 NSCLC = test system: HOP-92 NSCLC
HS 578T breast = test system: HS 578T breast
HT29 colon = test system: HT29 colon
IGROV1 ovarian = test system: IGROV1 ovarian
KM12 colon = test system: KM12 colon
LOX IMVI melanoma = test system: LOX IMVI melanoma
M14 melanoma = test system: M14 melanoma
MALME-3M melanoma = test system: MALME-3M melanoma
MCF7 breast = test system: MCF7 breast
MDA-MB-231 breast = test system: MDA-MB-231 breast
MDA-MB-435 = test system: MDA-MB-435
MDA-N = test system: MDA-N
MOLT-4 leukemia = test system: MOLT-4 leukemia
NCI-H226 lung = test system: NCI-H226 lung
NCI-H23 lung = test system: NCI-H23 lung
NCI-H460 lung = test system: NCI-H460 lung
NCI-H522 lung = test system: NCI-H522 lung
NCI/ADR-RES ovarian = test system: NCI/ADR-RES ovarian
OVCAR-4 ovarian = test system: OVCAR-4 ovarian
OVCAR-5 ovarian = test system: OVCAR-5 ovarian
OVCAR-8 ovarian = test system: OVCAR-8 ovarian
PC-3 prostate = test system: PC-3 prostate
RXF 393 renal = test system: RXF 393 renal
SF-268 CNS = test system: SF-268 CNS
SF-295 CNS = test system: SF-295 CNS
SF-539 CNS = test system: SF-539 CNS
SK-MEL-2 melanoma = test system: SK-MEL-2 melanoma
SK-MEL-28 melanoma = test system: SK-MEL-28 melanoma
SK-MEL-5 melanoma = test system: SK-MEL-5 melanoma
SK-OV-3 ovarian = test system: SK-OV-3 ovarian
SN12C renal = test system: SN12C renal
SNB-19 CNS = test system: SNB-19 CNS
SNB-75 CNS = test system: SNB-75 CNS
SR leukemia = test system: SR leukemia
SW-620 colon = test system: SW-620 colon
T-47D breast = test system: T-47D breast
TK-10 renal = test system: TK-10 renal
U251 CNS = test system: U251 CNS
UACC-257 melanoma = test system: UACC-257 melanoma
UACC-62 melanoma = test system: UACC-62 melanoma
UO-31 renal = test system: UO-31 renal
HOP-62 NSCLC = test system: HOP-62 NSCLC
K-562 leukemia = test system: K-562 leukemia
OVCAR-3 ovarian = test system: OVCAR-3 ovarian

CC1OC(OC2C(O[C@H]3CC[C@@]4(C)C(=CC[C@H]5[C@@H]6C[C@@H]7O[C@]8(CC[C@H](C)CN8)[C@@H](C)[C@@H]7[C@@]6(C)CC[C@@H]54)C3)OC(CO)C(O)C2OC2OC(CO)C(O)C(O)C2O)C(O)C(O)C1O (some centres not stated)
TGI (786-0 renal): 51 µM
TGI (A498 renal): 42.9 µM
TGI (A549 NSCLC): 34.5 µM
TGI (ACHN renal): 31.4 µM
TGI (BT-549 breast): 30.9 µM
TGI (CAKI-1 renal): 34 µM
TGI (CCRF-CEM leukemia): 39.3 µM
TGI (COLO 205 colon): 31.8 µM
TGI (DU-145 prostate): 33.6 µM
TGI (EKVX NSCLC): 32.3 µM
TGI (HCC-2998 colon): 32.2 µM
TGI (HCT-116 colon): 39.9 µM
TGI (HCT-15 colon): 30.3 µM
TGI (HL-60(TB) leukemia): 32.6 µM
TGI (HOP-92 NSCLC): 35.5 µM
TGI (HS 578T breast): 31.2 µM
TGI (HT29 colon): 31.6 µM
TGI (IGROV1 ovarian): 39.5 µM
TGI (KM12 colon): 34.9 µM
TGI (LOX IMVI melanoma): 83.6 µM
TGI (M14 melanoma): 37.8 µM
TGI (MALME-3M melanoma): 34.5 µM
TGI (MCF7 breast): 32.9 µM
TGI (MDA-MB-231 breast): 38.8 µM
TGI (MDA-MB-435): 50.7 µM
TGI (MDA-N): 36.1 µM
TGI (MOLT-4 leukemia): 42.1 µM
TGI (NCI-H226 lung): 38.2 µM
TGI (NCI-H23 lung): 32.5 µM
TGI (NCI-H460 lung): 31.6 µM
TGI (NCI-H522 lung): 30.3 µM
TGI (NCI/ADR-RES ovarian): 32.5 µM
TGI (OVCAR-4 ovarian): 37 µM
TGI (OVCAR-5 ovarian): 28.7 µM
TGI (OVCAR-8 ovarian): 31.1 µM
TGI (PC-3 prostate): 33.5 µM
TGI (RXF 393 renal): 31.5 µM
TGI (SF-268 CNS): 33.3 µM
TGI (SF-295 CNS): 34.1 µM
TGI (SF-539 CNS): 33.8 µM
TGI (SK-MEL-2 melanoma): 32.4 µM
TGI (SK-MEL-28 melanoma): 38.5 µM
TGI (SK-MEL-5 melanoma): 33.6 µM
TGI (SK-OV-3 ovarian): 30.5 µM
TGI (SN12C renal): 38.6 µM
TGI (SNB-19 CNS): 35.6 µM
TGI (SNB-75 CNS): 29.2 µM
TGI (SR leukemia): 61.6 µM
TGI (SW-620 colon): 39 µM
TGI (T-47D breast): 39 µM
TGI (TK-10 renal): 31.1 µM
TGI (U251 CNS): > 100 µM
TGI (UACC-257 melanoma): 33 µM
TGI (UACC-62 melanoma): 32.1 µM
TGI (UO-31 renal): 33.2 µM

CC(C)[Si](OC1=CCC[C@H]2NC(=O)[C@@H](Cc3ccccc3)[C@@]12C)(C(C)C)C(C)C
TGI (786-0 renal): 14.9 µM
TGI (A498 renal): 19.2 µM
TGI (A549 NSCLC): 12.6 µM
TGI (ACHN renal): 5.25 µM
TGI (BT-549 breast): 24.1 µM
TGI (CAKI-1 renal): 14.6 µM
TGI (CCRF-CEM leukemia): 10.2 µM
TGI (COLO 205 colon): 6.35 µM
TGI (DU-145 prostate): 22.1 µM
TGI (EKVX NSCLC): 15 µM
TGI (HCC-2998 colon): 4.42 µM
TGI (HCT-116 colon): 14.1 µM
TGI (HCT-15 colon): 15.6 µM
TGI (HL-60(TB) leukemia): 7.82 µM
TGI (HOP-62 NSCLC): 24.2 µM
TGI (HOP-92 NSCLC): 6.67 µM
TGI (HS 578T breast): 18.5 µM
TGI (HT29 colon): 12.1 µM
TGI (IGROV1 ovarian): 26.7 µM
TGI (K-562 leukemia): 12.5 µM
TGI (KM12 colon): 14.4 µM
TGI (LOX IMVI melanoma): 11.2 µM
TGI (M14 melanoma): 24.7 µM
TGI (MALME-3M melanoma): 34.3 µM
TGI (MCF7 breast): 13.4 µM
TGI (MDA-MB-231 breast): 26.5 µM
TGI (MDA-MB-435): 13.4 µM
TGI (MDA-N): 14.2 µM
TGI (MOLT-4 leukemia): 14.7 µM
TGI (NCI-H23 lung): 18.9 µM
TGI (NCI-H460 lung): 12.4 µM
TGI (NCI-H522 lung): 17.4 µM
TGI (NCI/ADR-RES ovarian): 21.7 µM
TGI (OVCAR-3 ovarian): 19.7 µM
TGI (OVCAR-4 ovarian): 19.7 µM
TGI (OVCAR-5 ovarian): 21.3 µM
TGI (OVCAR-8 ovarian): 24.8 µM
TGI (PC-3 prostate): 12.3 µM
TGI (RXF 393 renal): 15 µM
TGI (SF-268 CNS): 29.1 µM
TGI (SF-295 CNS): 17.2 µM
TGI (SF-539 CNS): 19.1 µM
TGI (SK-MEL-2 melanoma): 29.7 µM
TGI (SK-MEL-28 melanoma): 13.1 µM
TGI (SK-MEL-5 melanoma): 9.58 µM
TGI (SK-OV-3 ovarian): 18.9 µM
TGI (SN12C renal): 9.85 µM
TGI (SNB-19 CNS): 22.5 µM
TGI (SNB-75 CNS): 31.2 µM
TGI (SR leukemia): 7.19 µM
TGI (SW-620 colon): 9.16 µM
TGI (T-47D breast): 12.2 µM
TGI (TK-10 renal): 21.7 µM
TGI (U251 CNS): 11.6 µM
TGI (UACC-257 melanoma): 16.3 µM
TGI (UACC-62 melanoma): 22.4 µM
TGI (UO-31 renal): 22.3 µM
